The results in this text go back to patent US11458144B1, “Methods for using 5-HMF analogs with increased solubility to inhibit or reverse RBC sickling” (King Abdulaziz University, priority 2021, dated 2022).

Data set [1] deals with T1, Hb (Homo sapiens, UniProt P68871+P69905, E7V).
T1 construct: Using homozygous sickle (SS) blood from patients; endogenous in cells; host or cells: red blood cells of homozygous SS patient blood (hematocrit 20%); clarified lysates measured after incubation
The data set can be described thus: Hb adduct formation (Hb modification) by cation-exchange HPLC, SS blood lysates. The format is binding. The settings on record: SS RBCs. The source says: (§1) The effect of the MMA compounds and positive control 5-HMF on RBC sickling, Hb modification, and Hb oxygen equilibrium was studied utilizing SS blood following previous procedure.^[27]
The Hb adduct formation study also used clarified lysates that were subjected to a cation-exchange HPLC (Hitachi D-7000 Series, Hitachi Instruments, Inc., San Jose, Calif.), and a weak cation-exchange column (Poly CAT A: 30 mm×4.6 mm, Poly LC, Inc., Columbia, Md.).
(§2) Using homozygous sickle (SS) blood from patients, the MMA compounds (MMA502, MMA503, MMA504, MMA505, and MMA509 were tested with 5-HMF as control for Hb adduct formation, effect on Hb affinity for oxygen and corresponding antisickling activities (RBC morphology study) using previously published protocols.^14,15

Data set [2] concerns the target T1, Hb. Briefly: Oxygen equilibrium study (P50 shift) of lysates from SS blood, Hemox Analyzer. The format is cell-based. The settings on record: SS RBCs. The method, then:
as §1
For the oxygen equilibrium study, about 100 μL aliquot of clarified lysate of residual samples from the above antisickling study was added to 4 mL of 0.1 M potassium phosphate buffer, pH 7.0, in cuvettes and subjected to hemoximetry analysis using Hemox™ Analyzer (TCS Scientific Corp., New Hope, Pa.) to assess P50 shift, which is the partial pressure of oxygen (PO2) at which 50% of Hb is saturated with oxygen (SO2). Degree of Hb O2 affinity shift (ΔP50) was expressed as percentage fractions of control DMSO-treated samples.
as §2

The test system of data set [3] is SS RBCs. Briefly: Antisickling study (RBC morphology) in SS blood under hypoxia. The format is cell-based, human. Conditions: 2 mM; for antisickling activity relative to 5-HMF: over 5-HMF; for inhibition at 2000 µM: Homo sapiens, SS blood hematocrit 20%, 2.5% O2, 37° C., read-out: % Sickling inhibition. The method, then:
as §1
For the antisickling study, SS blood (hematocrit 20%) were incubated under air in the absence or presence of all the MMA compounds (0.5 mM, 1 mM and 2 mM) at 37° C. for 1 h, followed by incubating the mixture under hypoxic conditions (2.5% O2) at 37° C. for 2 h. Aliquots with fixed 2% glutaraldehyde solution and under anaerobic condition were subjected to microscopic morphological analysis.^[11]
as §2

The target of data set [4] is T2, HbA (Homo sapiens, UniProt P68871+P69905).
T2 construct: time-dependent P50-shift of HbA in normal blood (20% hematocrit); endogenous in cells; host or cells: red blood cells in normal whole blood of adult donors (hematocrit 20%)
The data set can be described thus: Time-dependent Hb oxygen equilibrium study in normal whole blood. The format is cell-based. The settings on record: 2 mM, 20% hematocrit. The method, then: The time-dependent effect of the MMA compounds and positive control 5-HMF on Hb oxygen affinity was studied using normal blood following previous procedure.^[15] Briefly, normal blood samples (hematocrit 20%) were incubated with the compounds at 37° C. for 24 h. Aliquots were taken at various time points and incubated in IL 237 tonometers (Instrumentation Laboratories, Inc. Lexington, Mass.) for 10 minutes at 37° C., and allowed to equilibrate at oxygen tensions 6, 20, and 40 mmHg. The samples were then aspirated into an ABL 700 Automated Blood Gas Analyzer (Radiometer) to determine the pH, partial pressure of CO2 (pCO2), partial pressure of oxygen (pO2), and Hb oxygen saturation values (SO2). The measured values of pO2 (mmHg) and SO2 at each pO2 value were then subjected to a non-linear regression analysis using the program Scientist (Micromath, Salt Lake City, Utah) to estimate P50 as previously reported.^[28]
5-HMF has a short half-life and poor oral bioavailability due to this metabolic instability, which in part prevented its development for chronic use. Nonetheless, this metabolic instability could be advantageous for parenteral formulation for acute use. […] Briefly, blood samples (hematocrit 20%) were incubated with the compounds at 37° C. for 24 h, and aliquots were taken at the various time points and used to determine the PO2 and SO2 using ABL 800 Automated Blood Gas Analyzer (Radiometer), and to estimate P50 as previously reported.^[10]
The study confirmed the trend in the biological potencies observed with SS blood.

The subject of data set [5] is human cytochrome P450 (CYP) enzymes. Briefly: In vitro CYP inhibition, panel of seven enzymes (overall statement). The format is in vitro ADME. Conditions: 0.1 to 100 μM; pooled human liver microsomes. The method, then: The probe substrates include tacrine (CYP1A2), amodiaquine (CYP2C8), tolbutamide (CYP2C9), mephenytoin (CYP2C19), dextromethorphan (CYP2D6), midazolam (CYP3A4), testosterone (CYP3A4), and bupropion (CYP2B6). […] The assays were performed in duplicate in 96-well plates at 37° C. for 10-60 minutes. The reaction was terminated with addition of methanol, followed by incubation at 4° C. for 10 min and centrifuged at 4° C. for 10 min.

A value given as a limit tells only on which side of the number the result lay.

In the case of `O=Cc1ccc(C(F)F)o1` [MMA-502, 5-(difluoromethyl)furan-2-carbaldehyde], the “% Hb-modification (adduct formation)” value in data set [1] (0.5 mM) is reported as 9.6 ± 0.0%; in data set [1] (1 mM) it was 20.4 ± 6.6%; in data set [1] (2 mM, listed as 502), 42.4 ± 10.9%; in data set [1] (2 mM, listed as MMA502), 42%. For the same molecule, the “% Hb-O2 affinity (P50 shift vs DMSO control)” value turned out to be 14.2 ± 3.4% in data set [2] (0.5 mM); 8.8 ± 0.5% in data set [2] (1 mM); 31.5 ± 12.7% in data set [2] (2 mM, listed as 502); 32% in data set [2] (2 mM, listed as MMA502). In addition, in data set [3], the “antisickling activity relative to 5-HMF” value was around 2.5 fold.

Consider `O=Cc1ccc(-c2ccn[nH]2)o1` [MMA-503, 5-(1H-pyrazol-5-yl)furan-2-carbaldehyde], for which the “% Hb-modification (adduct formation)” value is on record as 4.8 ± 2.1% in data set [1] (0.5 mM); 18.0 ± 7.9% in data set [1] (1 mM); 34.6 ± 7.1% in data set [1] (2 mM, listed as 503); 35% in data set [1] (2 mM, listed as MMA503). Also, the “% Hb-O2 affinity (P50 shift vs DMSO control)” value in data set [2] (0.5 mM) was 8.0 ± 1.1%; in data set [2] (1 mM), 20.0 ± 2.5%; in data set [2] (2 mM, listed as 503), 37.1 ± 2.5%; in data set [2] (2 mM, listed as MMA503), 37%.

Consider `O=Cc1ccc(N2CCC(O)CC2)o1` [MMA-504, 5-(4-hydroxypiperidin-1-yl)furan-2-carbaldehyde], for which the “% Hb-modification (adduct formation)” value is 0.0 ± 0.0% in data set [1] (0.5 mM); 0.0 ± 1.0% in data set [1] (1 mM); 0.4 ± 0.8% in data set [1] (2 mM, listed as 504); below 1% in data set [1] (2 mM, listed as MMA504). Besides, the “% Hb-O2 affinity (P50 shift vs DMSO control)” value in data set [2] (0.5 mM) is reported as 4.4 ± 5.1%; in data set [2] (1 mM), 5.3 ± 1.5%; in data set [2] (2 mM, listed as 504), 2.7 ± 1.2%; in data set [2] (2 mM, listed as MMA504) it was 3%. Moreover, the inhibition at 2000 µM in data set [3] was 27%.

Consider `N#Cc1ccc(C=O)o1` [MMA-505, 5-formylfuran-2-carbonitrile], for which the “% Hb-modification (adduct formation)” value in data set [1] (0.5 mM) is recorded as 4.2 ± 1.6%; in data set [1] (1 mM), 10.4 ± 2.6%; in data set [1] (2 mM, listed as 505), 26.7 ± 6.0%; in data set [1] (2 mM, listed as MMA505), 27%. The “%P50 shift” value in data set [4] (at 1 hour) is 11%. In addition, the “duration of effect on Hb oxygen affinity” value in data set [4] (time course 0-8 hrs) is “completely losing activity after 3 hours”. The “% Hb-O2 affinity (P50 shift vs DMSO control)” value in data set [2] (0.5 mM) is given as 5.5 ± 1.2%; in data set [2] (1 mM), 14.6 ± 2.1%; in data set [2] (2 mM, listed as 505), 32.0 ± 3.0%; in data set [2] (2 mM, listed as MMA505), 40%. In data set [3], the “antisickling activity relative to 5-HMF” value is given as around 2.5 fold. Moreover, the inhibition at 2000 µM in data set [3] is 55%.

Turning to `O=Cc1ccc(C2CCCCO2)o1` (stereo not drawn) [MMA-509], the “% Hb-modification (adduct formation)” value in data set [1] (0.5 mM) turned out to be 16.2 ± 0.0%; in data set [1] (1 mM), 27.6 ± 3.6%; in data set [1] (2 mM, listed as 509) it was 53.3 ± 3.9%; in data set [1] (2 mM, listed as MMA509) it was 53%. For the same molecule, the “inhibition of liver CYP isozymes” value in data set [5] is “no inhibition”. Also, in data set [4] (at 1.5 hours), the “%P50 shift” value came to 60%. In addition, the “% Hb-O2 affinity (P50 shift vs DMSO control)” value turned out to be 16.3 ± 1.5% in data set [2] (0.5 mM); 34.5 ± 14.4% in data set [2] (1 mM); 58.5 ± 15.3% in data set [2] (2 mM, listed as 509); 59% in data set [2] (2 mM, listed as MMA509).
